Measured values: patent publication US20220386606A1, “SPECIFICALLY SUBSTITUTED 3-PHENYL-5-SPIROCYCLOPENTYL-3-PYRROLIN-2-ONES AND THEIR USE AS HERBICIDES” (Bayer Aktiengesellschaft, priority 2019, published 2022)

How the values were obtained:
ALOMY [1] = assay: Pre-emergence herbicidal action against ALOMY; type: in vivo, Alopecurus myosuroides; details: 320 g/ha, scored visually after 3 weeks vs untreated controls
Outline: (§1)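 Weed and crop seeds sown in sandy loam, then WP or EC formulations sprayed onto covering soil pre-emergence as aqueous suspension or emulsion at 600 to 800 L/ha water with 0.2% wetting agent. Greenhouse-grown; visual damage scored after 3 weeks versus untreated controls, 0–100%.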

AVEFA [2] = assay: Pre-emergence herbicidal action against AVEFA; type: in vivo, Avena fatua; details: 320 g/ha, scored visually after 3 weeks vs untreated controls
Outline: as §1

DIGSA [3] = assay: Pre-emergence herbicidal action against DIGSA; type: in vivo, Digitaria sanguinalis; details: 320 g/ha, scored visually after 3 weeks vs untreated controls
Outline: as §1

ECHCG [4] = assay: Pre-emergence herbicidal action against ECHCG; type: in vivo, Echinochloa crus-galli; details: 320 g/ha, scored visually after 3 weeks vs untreated controls
Outline: as §1

LOLRI [5] = assay: Pre-emergence herbicidal action against LOLRI (Table 8, titled post-emergence at 320 g/ha); type: in vivo, Lolium rigidum; details: table stands in the pre-emergence section
Outline: as §1

SETVI [6] = assay: Pre-emergence herbicidal action against SETVI; type: in vivo, Setaria viridis; details: 320 g/ha, scored visually after 3 weeks vs untreated controls
Outline: as §1

AMARE = assay: Pre-emergence herbicidal action against AMARE; type: in vivo, Amaranthus retroflexus; details: 320 g/ha
Outline: as §1

MATIN = assay: Pre-emergence herbicidal action against MATIN; type: in vivo; details: 320 g/ha
Outline: as §1

POLCO = assay: Pre-emergence herbicidal action against POLCO; type: in vivo, Polygonum convolvulus; details: 320 g/ha
From the text: Seeds of monocotyledonous and dicotyledonous weed plants and crop plants are laid out in sandy loam soil in wood-fiber pots and covered with soil. The compounds of the invention, formulated in the form of wettable powders (WP) or as emulsion concentrates (EC), are then applied to the surface of the covering soil as aqueous suspension or emulsion at a water application rate equating to 600 to 800 L/ha with addition of 0.2% wetting agent.
After the treatment, the pots are placed in a greenhouse and kept under good growth conditions for the trial plants. The damage to the test plants is scored visually after a test period of 3 weeks by comparison with untreated controls (herbicidal activity in percent (%): 100% activity=the plants have died, 0% activity=like control plants).

VIOTR = assay: Pre-emergence herbicidal action against VIOTR; type: in vivo, Viola tricolor; details: 320 g/ha
Outline: as §1

VERPE = assay: Pre-emergence herbicidal action against VERPE; type: in vivo, Veronica persica; details: 320 g/ha
Outline: as §1

ALOMY [7] = assay: Post-emergence herbicidal action against ALOMY; type: in vivo, Alopecurus myosuroides; details: 80 g/ha, visual assessment after about 3 weeks
Outline: (§2)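 Weeds and crops grown in sandy loam in the greenhouse, treated post-emergence at the one-leaf stage (2–3 weeks after sowing). WP or EC formulations sprayed as aqueous suspension/emulsion at 600–800 l/ha water with 0.2% wetting agent. Visual % activity scored after about 3 weeks versus untreated controls (100% = dead, 0% = like control).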

AVEFA [8] = assay: Post-emergence herbicidal action against AVEFA; type: in vivo, Avena fatua; details: 80 g/ha, visual assessment after about 3 weeks
Outline: as §2

DIGSA [9] = assay: Post-emergence herbicidal action against DIGSA; type: in vivo, Digitaria sanguinalis; details: 80 g/ha, visual assessment about 3 weeks after treatment vs untreated controls
Outline: as §2

ECHCG [10] = assay: Post-emergence herbicidal action against ECHCG; type: in vivo, Echinochloa crus-galli; details: 80 g/ha, visual assessment about 3 weeks after treatment vs untreated controls
Outline: as §2

LOLRI [11] = assay: Post-emergence herbicidal action against LOLRI; type: in vivo, Lolium rigidum; details: 80 g/ha, visual assessment about 3 weeks after treatment vs untreated controls
Outline: as §2

SETVI [12] = assay: Post-emergence herbicidal action against SETVI; type: in vivo, Setaria viridis; details: 80 g/ha, visual assessment about 3 weeks after treatment vs untreated controls
Outline: as §2

| Structure (SMILES) | Pre-emergence action against ALOMY in % (ALOMY [1]) [%] | Pre-emergence action against AVEFA in % (AVEFA [2]) [%] | Pre-emergence action against DIGSA in % (DIGSA [3]) [%] | Pre-emergence action against ECHCG in % (ECHCG [4]) [%] | Pre-emergence herbicidal action against LOLRI in % (LOLRI [5]) [%] | Pre-emergence action against SETVI in % (SETVI [6]) [%] | Pre-emergence action against AMARE in % (AMARE) [%] | Pre-emergence action against MATIN in % (MATIN) [%] | Pre-emergence action against POLCO in % (POLCO) [%] | Pre-emergence action against VIOTR in % (VIOTR) [%] | Pre-emergence action against VERPE in % (VERPE) [%] | Post-emergence action against ALOMY in % (ALOMY [7]) [%] | Post-emergence action against AVEFA in % (AVEFA [8]) [%] | Post-emergence action against DIGSA in % (DIGSA [9]) [%] | Post-emergence action against ECHCG in % (ECHCG [10]) [%] | Post-emergence action against LOLRI in % (LOLRI [11]) [%] | Post-emergence action against SETVI in % (SETVI [12]) [%] |
| --- | --- | --- | --- | --- | --- | --- | --- | --- | --- | --- | --- | --- | --- | --- | --- | --- | --- |
| CC#Cc1cc(C)c(C2=C(O)C3(CCC(COCCOC)C3)NC2=O)c(Cl)c1 (stereo not shown) [Example I-51] | 100 | 100 | 100 | 100 | 100 | 100 | 100 | 100 | 80 | 100 | 100 | 100 | 100 | 100 | 100 | 90 | 100 |
| CC#Cc1cc(C)c(C2=C(OC(=O)C(C)C)C3(CCC(COCC)C3)NC2=O)c(OC)c1 (stereo not shown) [Example P-60] | 100 | 100 | 100 | 100 | 100 | 100 | 100 | 90 | 80 | 100 | 80 | 100 | 100 | 90 | 100 | 100 | 100 |
| CC#Cc1cc(C)c(C2=C(OC(=O)OCC)C3(CCC(COCCC)C3)NC2=O)c(Cl)c1 (stereo not shown) [Example P-86] | 100 | 80 | 100 | 100 | 100 | 100 | 100 | 80 | 90 | 100 | 100 | 90 | – | 90 | 100 | 100 | 100 |
| C=CCOCC1CCC2(C1)NC(=O)C(c1c(C)cc(C#CC)cc1Br)=C2O (stereo not shown) [Example I-70] | 100 | 100 | 100 | 100 | 100 | 100 | – | 80 | 80 | 100 | – | 90 | – | 90 | 100 | 90 | 100 |
| C#CCOCC1CCC2(C1)NC(=O)C(c1c(C)cc(C#CC)cc1Cl)=C2O (stereo not shown) [Example I-79] | 100 | 100 | 100 | 100 | 100 | 100 | 100 | 90 | 90 | 100 | 80 | 90 | 90 | 100 | 100 | 100 | 100 |
| C=CCOCC1CCC2(C1)NC(=O)C(c1c(C)cc(C#CC)cc1Cl)=C2O (stereo not shown) [Example I-46] | 100 | 90 | 100 | 100 | 100 | 100 | 100 | 90 | 90 | 100 | – | – | – | 90 | 100 | 90 | 100 |
| CC#Cc1cc(C)c(C2=C(OC(=O)OCC)C3(CCC(COCCOC)C3)NC2=O)c(OC)c1 (stereo not shown) [Example P-80] | 100 | 100 | 100 | 100 | 100 | 100 | 90 | 90 | 90 | 100 | 100 | 100 | 90 | 90 | 100 | 90 | 100 |
